Test system: methicillin sensitive Staphylococcus aureus (MSSA; Smith strain)
Test: Mouse protection model: mice infected intraperitoneally with MSSA, dosed subcutaneously
Type: in vivo
Conditions: for Number Dead: 10 mice
Protocol: An overnight culture of methicillin sensitive Staphylococcus aureus (“MSSA”; Smith strain) grown to stationary phase in brain heart infusion broth (BHI) was diluted 1000-fold and maintained at 37° C. in a shaking incubator. Approximately two hours later the culture was centrifuged and the pellet was washed with sterile phosphate-buffered saline (“PBS”). The washed pellet was then reconstituted in Mueller-Hinton Broth (“MHB”) to achieve the desired density of bacteria. A portion of the inoculum was plated on blood agar plates to determine colony-forming units (CFU) per milliliter.
Compound IB-1272 was formulated immediately before dosing in aqueous vehicle containing 5% dextrose. Compound IB-756 (Aspartocin) was formulated in PBS or 5% dextrose and used as a positive control.
Immunocompetent Swiss Webster Mice from Simonsen Laboratories, Gilroy, Calif., received via intraperitoneal injection a single inoculum (0.5 ml) containing an estimated 4.0×10^7 CFU of MSSA Smith strain. The day of inoculation was designated study day 0. Immediately after infection, mice were treated subcutaneously with a single dose of vehicle alone, IB-1272 (2, 4, or 8 mg/kg), IB-756 (2.5 or 5 mg/kg in PBS), or IB-756 (2.5 or 5 mg/kg in 5% dextrose).

[1] = Table 1, no unit or model given
[2] = 2.0 mg/kg s.c. single dose (5% dextrose vehicle)
[3] = 4 mg/kg s.c. single dose (5% dextrose vehicle)
[4] = 8 mg/kg s.c. single dose (5% dextrose vehicle)

CC(C)CCCCCCCC/C=C\CC(=O)N[C@@H](CC(=O)O)C(=O)N[C@@H]1C(=O)N2CCCC[C@@H]2C(=O)N[C@@H]([C@H](C)C(=O)O)C(=O)N[C@@H](CC(=O)O)C(=O)NCC(=O)N[C@@H](CC(=O)O)C(=O)NCC(=O)N[C@H]([C@@H](C)NC(=O)[C@@H](N)CO)C(=O)N[C@@H](C(C)C)C(=O)N2CCC[C@H]2C(=O)N[C@@H]1C [IB-1281, NatC15-aspartocin(Dab^9-N-L-seryl)]
ED50 [1]: 14.7 mg/kg

CC(C)CCCCCCCC/C=C\CC(=O)N[C@@H](CC(=O)O)C(=O)N[C@@H]1C(=O)N2CCCC[C@@H]2C(=O)N[C@@H]([C@H](C)C(=O)O)C(=O)N[C@@H](CC(=O)O)C(=O)NCC(=O)N[C@@H](CC(=O)O)C(=O)NCC(=O)N[C@H]([C@@H](C)NC(=O)CN)C(=O)N[C@@H](C(C)C)C(=O)N2CCC[C@H]2C(=O)N[C@@H]1C [IB-1272, NatC15-aspartocin(Dab^9-N-glycyl)]
Percent Mortality [2]: 50%
Percent Survival [2]: 50%
Number Dead [2]: 5
Percent Mortality [3]: 0%
Percent Survival [3]: 100%
Number Dead [3]: 0
Percent Mortality [4]: 0%
Percent Survival [4]: 100%
Number Dead [4]: 0
ED50 [1]: 1.8 mg/kg
ED50 (subcutaneously administered, immunocompetent mice challenged intraperitoneally with MSSA Smith strain): < 2.0 mg/kg

CC(C)CCCCCCCC/C=C\CC(=O)N[C@@H](CC(=O)O)C(=O)N[C@@H]1C(=O)N2CCCC[C@@H]2C(=O)N[C@@H]([C@H](C)C(=O)O)C(=O)N[C@@H](CC(=O)O)C(=O)NCC(=O)N[C@@H](CC(=O)O)C(=O)NCC(=O)N[C@H]([C@@H](C)NC(=O)[C@@H](C)N)C(=O)N[C@@H](C(C)C)C(=O)N2CCC[C@H]2C(=O)N[C@@H]1C [IB-1279, NatC15-aspartocin(Dab^9-N-D-alanyl)]
ED50 [1]: 6 mg/kg

CC(C)CCCCCCCC/C=C\CC(=O)N[C@@H](CC(=O)O)C(=O)N[C@@H]1C(=O)N2CCCC[C@@H]2C(=O)N[C@@H]([C@H](C)C(=O)O)C(=O)N[C@@H](CC(=O)O)C(=O)NCC(=O)N[C@@H](CC(=O)O)C(=O)NCC(=O)N[C@H]([C@@H](C)NC(=O)[C@H](C)N)C(=O)N[C@@H](C(C)C)C(=O)N2CCC[C@H]2C(=O)N[C@@H]1C [IB-1275, NatC15-aspartocin(Dab^9-N-L-alanyl)]
ED50 [1]: 15.7 mg/kg

Reference: US7125844B2, “Dab9 derivatives of lipopeptide antibiotics and methods of making and using the same” (priority 2002, dated 2006)
